The values that follow come from US11130752B2, “Aminopyrimidine compound” (Cardurion Pharmaceuticals, LLC, priority 2018, dated 2021).

Usually IC50 stands for the concentration that gives 50% inhibition. A lower IC50 goes with inhibition by little substance.

SMILES strings stand for the structures. Counter-ions that a name gives are not always drawn.

For the assay, the target named is T1, human CaMKIIδ (Homo sapiens, UniProt Q13557).
T1 construct: Full-length, glutathione-S-transferase(GST)-tagged, human CaMKIIδ was purchased from Carna Biosciences; purchased Carna Biosciences (CaMKIIδ); Wako Pure Chemical Industries (calmodulin) 02-111
In words: In vitro CaMKII inhibitory activity (binding assay, TR-FRET). The settings on record: Table 1, GST-tagged human CaMKIIδ, activity ranks. On the procedure: Evaluation of In Vitro CaMKII Inhibitory Activity (Binding Assay)
In vitro CaMKIIδ inhibitory activity was evaluated by a binding assay.
Full-length, glutathione-S-transferase(GST)-tagged, human CaMKIIδ was purchased from Carna Biosciences (product #02-111, Kobe, Japan). Full-length bovine calmodulin was purchased from Wako Pure Chemical Industries (Osaka, Japan). Terbium-labeled anti-GST antibody (Tb-anti-GST Ab) was purchased from Life Technologies (Carlsbad, Calif., USA). Boron-dipyrromethene (BODIPY)-labeled probe ligand was synthesized as described below.
Time-Resolved Fluorescence Resonance Energy Transfer (TR-FRET) Assay
All assays were conducted using 384-well, white, flat-bottomed plates (product #784075, Greiner Bio-One, Frickenhausen, Germany) in kinase assay buffer, which consists of 50 mM HEPES pH 7.6, 10 mM MgCl2, 1 mM EGTA, 0.01% Brig-35, 0.1 mM DTT). The fluorescent probe ligand was added at a final concentration of 300 nM to solutions containing 0.21 nM Tb-anti-GST Ab, 1 mM CaCl2, 10 μg/mL calmodulin, and 0.5 nM GST-tagged CaMKIIδ. After shaded incubation of the protein-probe mixture on ice for 30 min, the premix was dispensed in the assay plate including test inhibitors with 4 fold dilution series of eight concentrations. After 1 hr incubation at room temperature, TR-FRET signals were measured in duplicate using an EnVision microplate reader (Perkin Elmer, Waltham, Mass., USA). The solution in each well was excited with a laser (λ=340 nm) reflected by a dichroic mirror (D400/D505 (Perkin Elmer) through an excitation filter (UV (TRF) 340, (Perkin Elmer)), and fluorescence from Tb and BODIPY were detected through two emission filters (CFP 495 (Perkin Elmer) for Tb, Emission 520 (Perkin Elmer) for BODIPY).
The percentage of inhibition of test compounds was calculated according to equation (1) Inhibition(%)=100×(μH−T)/(μH−μL) (1)
Where T is the value of the wells containing test compounds and μH and μL are the mean values of the 0% and 100% inhibition control wells, respectively. The values of the 0 and 100% controls were the signals obtained in the absence and presence of 3 μM its parent compound, respectively. The half maximal inhibitory concentration (IC50) of test compounds was calculated by fitting the data with the logistic equation using XLfit (IDBS, Guildford, UK). The IC50 was classified according to the following activity ranks.
Consider `COCCOc1nn([C@H]2CC[C@H](N3CCOCC3)CC2)cc1Nc1ncc(-c2ccc(C#N)c(O[C@@H](C)Cn3cnnn3)c2)cn1` [Example 1, 2-(((S)-1-(1H-tetrazol-1-yl)propan-2-yl)oxy)-4-(2-((3-(2-methoxyethoxy)-1-((1r,4r)-4-morpholinocyclohexyl)-1H-pyrazol-4-yl)amino)pyrimidin-5-yl)benzonitrile], for which the 50% inhibitory concentration (IC50) is less than 10 nM.

In turn, `COCCOc1nn([C@H]2CC[C@H](N3CCOCC3)CC2)cc1Nc1ncc(-c2ccc(Cl)c(O[C@@H](C)Cn3cnnn3)c2)cn1` [Example 2, 5-(3-(((S)-1-(1H-tetrazol-1-yl)propan-2-yl)oxy)-4-chlorophenyl)-N-(3-(2-methoxyethoxy)-1-((1r,4r)-4-morpholinocyclohexyl)-1H-pyrazol-4-yl)pyrimidin-2-amine] yielded a 50% inhibitory concentration (IC50) of less than 10 nM.

For `CCOCCOc1nn([C@H]2CC[C@H](N3CCOCC3)CC2)cc1Nc1ncc(-c2ccc(C#N)c(O[C@@H](C)Cn3cnnn3)c2)cn1` [Example 8, 2-(((S)-1-(1H-tetrazol-1-yl)propan-2-yl)oxy)-4-(2-((3-(2-ethoxyethoxy)-1-((1r,4r)-4-morpholinocyclohexyl)-1H-pyrazol-4-yl)amino)pyrimidin-5-yl)benzonitrile], the IC50 was less than 10 nM.

`CCOCCOc1nn([C@H]2CC[C@H](N3CCOCC3)CC2)cc1Nc1ncc(-c2ccc(Cl)c(O[C@@H](C)Cn3cnnn3)c2)cn1` [Example 9, 5-(3-(((S)-1-(1H-tetrazol-1-yl)propan-2-yl)oxy)-4-chlorophenyl)-N-(3-(2-ethoxyethoxy)-1-((1r,4r)-4-morpholinocyclohexyl)-1H-pyrazol-4-yl)pyrimidin-2-amine] gave a half-maximal inhibitory concentration (IC50) of less than 10 nM.

`CC(C)OCCOc1nn([C@H]2CC[C@H](N3CCOCC3)CC2)cc1Nc1ncc(-c2ccc(C#N)c(O[C@@H](C)Cn3cnnn3)c2)cn1` [Example 14, 2-(((S)-1-(1H-tetrazol-1-yl)propan-2-yl)oxy)-4-(2-((3-(2-isopropoxyethoxy)-1-((1r,4r)-4-morpholinocyclohexyl)-1H-pyrazol-4-yl)amino)pyrimidin-5-yl)benzonitrile]: the half-maximal inhibitory concentration (IC50) is less than 10 nM.

Consider `CC(C)OCCOc1nn([C@H]2CC[C@H](N3CCOCC3)CC2)cc1Nc1ncc(-c2ccc(C#N)c(O[C@@H](C)Cn3cncn3)c2)cn1` [Example 16, 2-(((S)-1-(1H-1,2,4-triazol-1-yl)propan-2-yl)oxy)-4-(2-((3-(2-isopropoxyethoxy)-1-((1r,4r)-4-morpholinocyclohexyl)-1H-pyrazol-4-yl)amino)pyrimidin-5-yl)benzonitrile], for which the IC50 was less than 10 nM.

Take `COCCCOc1nn([C@H]2CC[C@H](N3CCOCC3)CC2)cc1Nc1ncc(-c2ccc(Cl)c(O[C@@H](C)Cn3cnnn3)c2)cn1` [Example 27, 5-(3-(((S)-1-(1H-tetrazol-1-yl)propan-2-yl)oxy)-4-chlorophenyl)-N-(3-(3-methoxypropoxy)-1-((1r,4r)-4-morpholinocyclohexyl)-1H-pyrazol-4-yl)pyrimidin-2-amine]: the IC50 is less than 10 nM.

In the case of `COCCCOc1nn([C@H]2CC[C@H](N3CCOCC3)CC2)cc1Nc1ncc(-c2ccc(C#N)c(O[C@@H](C)Cn3cncn3)c2)cn1` [Example 28, 2-(((S)-1-(1H-1,2,4-triazol-1-yl)propan-2-yl)oxy)-4-(2-((3-(3-methoxypropoxy)-1-((1r,4r)-4-morpholinocyclohexyl)-1H-pyrazol-4-yl)amino)pyrimidin-5-yl)benzonitrile], the IC50 was less than 10 nM.

`CCOCCCOc1nn([C@H]2CC[C@H](N3CCOCC3)CC2)cc1Nc1ncc(-c2ccc(Cl)c(O[C@@H](C)Cn3cnnn3)c2)cn1` [Example 34, 5-(3-(((S)-1-(1H-tetrazol-1-yl)propan-2-yl)oxy)-4-chlorophenyl)-N-(3-(3-ethoxypropoxy)-1-((1r,4r)-4-morpholinocyclohexyl)-1H-pyrazol-4-yl)pyrimidin-2-amine]: the IC50 is less than 10 nM.

`C[C@@H](Cn1cnnn1)Oc1cc(-c2cnc(Nc3cn([C@H]4CC[C@H](N5CCOCC5)CC4)nc3OCCCOCC(F)F)nc2)ccc1C#N` [Example 46, 2-(((S)-1-(1H-tetrazol-1-yl)propan-2-yl)oxy)-4-(2-((3-(3-(2,2-difluoroethoxy)propoxy)-1-((1r,4r)-4-morpholinocyclohexyl)-1H-pyrazol-4-yl)amino)pyrimidin-5-yl)benzonitrile]: the IC50 is less than 10 nM.

`C[C@@H](Cn1cnnn1)Oc1cc(-c2cnc(Nc3cn([C@H]4CC[C@H](N5CCOCC5)CC4)nc3OCCCOCC(F)F)nc2)ccc1Cl` [Example 47, 5-(3-(((S)-1-(1H-tetrazol-1-yl)propan-2-yl)oxy)-4-chlorophenyl)-N-(3-(3-(2,2-difluoroethoxy)propoxy)-1-((1r,4r)-4-morpholinocyclohexyl)-1H-pyrazol-4-yl)pyrimidin-2-amine] yielded an IC50 of less than 10 nM.

The molecule `COCCOCCOc1nn([C@H]2CC[C@H](N3CCOCC3)CC2)cc1Nc1ncc(-c2ccc(C#N)c(O[C@@H](C)Cn3cnnn3)c2)cn1` [Example 48, 2-(((S)-1-(1H-tetrazol-1-yl)propan-2-yl)oxy)-4-(2-((3-(2-(2-methoxyethoxy)ethoxy)-1-((1r,4r)-4-morpholinocyclohexyl)-1H-pyrazol-4-yl)amino)pyrimidin-5-yl)benzonitrile hydrochloride] showed an IC50 of less than 10 nM.

As to `COCCOCCOc1nn([C@H]2CC[C@H](N3CCOCC3)CC2)cc1Nc1ncc(-c2ccc(Cl)c(O[C@@H](C)Cn3cnnn3)c2)cn1` [Example 49, 5-(3-(((S)-1-(1H-tetrazol-1-yl)propan-2-yl)oxy)-4-chlorophenyl)-N-(3-(2-(2-methoxyethoxy)ethoxy)-1-((1r,4r)-4-morpholinocyclohexyl)-1H-pyrazol-4-yl)pyrimidin-2-amine hydrochloride], the 50% inhibitory concentration (IC50) was less than 10 nM.

Turning to `C[C@@H](Cn1cnnn1)Oc1cc(-c2cnc(Nc3cn([C@H]4CC[C@H](N5[C@@H]6CC[C@H]5COC6)CC4)nc3OCCS(C)(=O)=O)nc2)ccc1Cl` [Example 86, 5-(3-(((S)-1-(1H-tetrazol-1-yl)propan-2-yl)oxy)-4-chlorophenyl)-N-(1-((1r,4r)-4-((1R,5S)-3-oxa-8-azabicyclo[3.2.1]octan-8-yl)cyclohexyl)-3-(2-(methylsulfonyl)ethoxy)-1H-pyrazol-4-yl)pyrimidin-2-amine], the 50% inhibitory concentration (IC50) was less than 10 nM.

`C[C@@H](Cn1cnnn1)Oc1cc(-c2cnc(Nc3cn([C@H]4CC[C@H](N5CCOCC5)CC4)nc3OCc3ccccn3)nc2)ccc1C#N` [Example 129, 2-(((S)-1-(1H-tetrazol-1-yl)propan-2-yl)oxy)-4-(2-((1-((1r,4r)-4-morpholinocyclohexyl)-3-(pyridin-2-ylmethoxy)-1H-pyrazol-4-yl)amino)pyrimidin-5-yl)benzonitrile] showed an IC50 of less than 10 nM.

`C[C@@H](Cn1cnnn1)Oc1cc(-c2cnc(Nc3cn([C@H]4CC[C@H](N5CCOCC5)CC4)nc3OCc3ccccn3)nc2)ccc1Cl` [Example 130, 5-(3-(((S)-1-(1H-tetrazol-1-yl)propan-2-yl)oxy)-4-chlorophenyl)-N-(1-((1r,4r)-4-morpholinocyclohexyl)-3-(pyridin-2-ylmethoxy)-1H-pyrazol-4-yl)pyrimidin-2-amine] gave an IC50 of less than 10 nM.
